Measured values as given in patent US5914339A, “Substituted 1,3-benzodioxoles” (American Home Products Corporation, priority 1997, dated 1999).
Where two headings read alike, the source gives them in different places.

Legend:
[1] = target: human β2 adrenergic receptor (Homo sapiens, UniProt P07550); experiment: cell-based; conditions: for activation at 0.01 µM: 10 min, read-out: β2: % of isoproterenol activity (increase in cAMP)
How it was run: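 CHO cells transfected with human β1 or β2 adrenergic receptors were grown to confluence and exposed to compound at 10 nM for 10 min at 37° C. Cellular cAMP was measured by scintillation proximity assay. Activity is expressed as % of the response to 10 μM isoproterenol; EC50 (μM) was determined for selected compounds.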

[2] = target: human β1 adrenergic receptor (Homo sapiens, UniProt P08588); experiment: Human β1 adrenergic receptor agonist activity, cAMP increase in transfected CHO cells; format: cell-based
Method: The activity of the test compounds on human β-adrenergic receptors was determined with Chinese hamster ovary (CHO) cells transfected with human β2, or β1 adrenergic receptors. Agonist activity is indicated by increased cAMP levels in the CHO cells. Selectivity of the test compounds for the β3 receptor was assessed by comparison with results in β2 and β1 adrenergic receptor transfected cells.
1). Chinese hamster ovary (CHO) cells transfected with human β2, or β1 adrenergic receptors were used in the assay.
2). Cells were grown to confluent conditions in 24 well plates.
3). Drugs were dissolved in DMSO at a concentration of 10 μM.
4). Cells were incubated with drug at 10 nM concentration for 10 min at 37° C.
5). Cell cAMP concentrations were assayed using a scintillation proximity assay kit from Amersham Corp., Chicago, Ill.
6). Activities for the test compounds are expressed as a percentage of the isoproterenol response.
Production of the CHO cells transfected with human β2, or β1 adrenergic receptors, and compound test procedures utilizing the CHO cells, are described by Emorine et al. in their article "Molecular Characterization of the Human Beta3 -Adrenergic Receptor", Science 1989, 245(8), 1118-1121 and by Muzzin et al. in the article "An Adipose Tissue-Specific Beta3 -Adrenergic Receptor", J. Biol. Chem.1991, 266, 24053-24058.
^a Human β receptors expressed in Chinese hamster ovary cells,
compounds tested at 10 nM, results expressed as % of isoproterenol
activity (increase in cAMP) at 10 μM. EC50 (μM) values
determined for selected compounds.

plasma free fatty acids = experiment: Effects on plasma free fatty acid levels in rats; format: in vivo, rat; conditions: for ED50: Rattus norvegicus, 50 min, read-out: Rat Free Fatty Acid: ED50
Method: Rats respond to a single oral dose of β3 agonists by increasing plasma free fatty acids (FFA) in response to β3 receptor stimulation on the plasma membrane of the fat cell. 5-{2-[2-(3-Chloro-phenyl)-2-hydroxy-ethylamino]-propyl}-benzo[1,3]dioxole- 2,2-dicarboxylic acid diisopropyl ester (Standard 2) was used as a standard compound. All test compounds were dosed at 0.1 mg/kg and compared to the response by Standard 2.
1). Drugs were dissolved in DMSO at 10 mg/ml.
2). Twenty μl of the DMSO-drug solution was added to 10 mL methyl cellulose:tween-80 (0.5%:0.1%) for a final concentration of 20 μg/mL.
3). Methyl cellulose:tween-80 drug suspension was given via gavage (1 mL/200 g body weight; or 0.1 mg/kg) to rats and blood was collected 50 min later.
4). Plasma was analyzed for free fatty acids using a kit supplied by Biochemical Diagnostics Inc. (Brentwood, N.Y.).
5). Drug response was calculated from the formula below. [formula]
^b Elevation of plasma free fatty acids in rats, compounds tested at
0.1 mg/kg, results expressed as % of
5{2[2(3-Chloro-phenyl)-2-hydroxy-ethylaminopropylbenzo[1,3dioxole-2,2-dic
rboxylic acid diisopropyl ester response (78% increase) at 0.1 mg/kg.
ED50 (mg/kg) values determined for selected compounds.

[3] = cAMP in CHO cells, selected compounds, read-out: β2: EC50
[4] = cAMP in CHO cells, selected compounds, read-out: β1: EC50
[5] = elevation of plasma free fatty acids, oral gavage, selected compounds
[6] = compounds tested at 10 nM, isoproterenol at 10 μM, CHO cells, 10 min at 37° C

Chain of human β1 adrenergic receptor (P08588 whole entry): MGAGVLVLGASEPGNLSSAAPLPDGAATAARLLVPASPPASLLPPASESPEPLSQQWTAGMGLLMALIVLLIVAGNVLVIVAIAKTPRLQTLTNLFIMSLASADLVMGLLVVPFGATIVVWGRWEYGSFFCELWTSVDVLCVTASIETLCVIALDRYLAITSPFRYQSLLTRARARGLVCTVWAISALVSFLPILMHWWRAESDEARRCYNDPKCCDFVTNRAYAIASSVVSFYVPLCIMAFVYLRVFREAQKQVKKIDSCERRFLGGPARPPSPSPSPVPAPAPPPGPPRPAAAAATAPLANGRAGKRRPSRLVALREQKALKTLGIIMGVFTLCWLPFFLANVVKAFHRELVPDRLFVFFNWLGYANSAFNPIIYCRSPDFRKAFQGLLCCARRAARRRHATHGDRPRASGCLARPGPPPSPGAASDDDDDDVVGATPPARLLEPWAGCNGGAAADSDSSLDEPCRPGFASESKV

CC(Cc1ccc2c(c1)OC(C(=O)OCC1CCC1)(C(=O)OCC1CCC1)O2)NCC(O)c1cccc(Cl)c1 (stereo not drawn) [Example 40, 5-{2-[2-(3-Chloro-phenyl)-2-hydroxy-ethylamino]-propyl}-benzo[1,3]dioxole-2,2-dicarboxylic acid bis-cyclobutylmethyl ester]
EC50 [1, 3]: 420 nM | EC50 [2, 4]: 8400 nM | ED50 (plasma free fatty acids; [5]): 0.071 mg/kg

CC(Cc1ccc2c(c1)OC(C(=O)OCCOC(C)C)(C(=O)OCCOC(C)C)O2)NCC(O)c1cccc(Cl)c1 (stereo not drawn) [Example 21, 5-{2-[2-(3-Chloro-phenyl)-2-hydroxy-ethylamino]-propyl}-benzo[1,3]dioxole-2,2-dicarboxylic acid bis-(2-isopropoxy-ethyl) ester]
activation at 0.01 µM [1, 6]: 2% | ED50 (plasma free fatty acids; [5]): 0.086 mg/kg

CC(Cc1ccc2c(c1)OC(C(=O)OC(C)c1ccccc1)(C(=O)OC(C)c1ccccc1)O2)NCC(O)c1cccc(Cl)c1 (stereo not drawn) [Example 16, 5-{2-[2-(3-Chloro-phenyl)-2-hydroxy-ethylamino]-propyl}-benzo[1,3]dioxole-2,2-dicarboxylic acid bis-(1-phenyl-ethyl) ester]
ED50 (plasma free fatty acids; [5]): 0.128 mg/kg

CC(Cc1ccc2c(c1)OC(C(=O)OCC[Si](C)(C)C)(C(=O)OCC[Si](C)(C)C)O2)NCC(O)c1cccc(Cl)c1 (stereo not drawn) [Example 31, 5-{2-[2-(3-Chloro-phenyl)-2-hydroxy-ethylamino]-propyl}-benzo[1,3]dioxole-2,2-dicarboxylic acid bis-(2-trimethylsilanyl-ethyl) ester]
activation at 0.01 µM ([1]; CHO): 5% | ED50 (plasma free fatty acids; po): 0.09 mg/kg

C[C@H](Cc1ccc2c(c1)OC(C(=O)O)(C(=O)OCCC(C)(C)C)O2)NC[C@H](O)c1cccc(Cl)c1 (stereo partly drawn) [Example 81, 5-{(2R)-2-[(2R)-2-(3-Chloro-phenyl)-2-hydroxy-ethylamino]-propyl}-benzo[1,3]dioxole-2,2-dicarboxylic acid (3,3-dimethylbutyl) ester]
EC50 [1, 3]: 59 nM | EC50 [2, 4]: 380 nM

Carbonic acid 3-chloro-benzyl ester 2-(3-chloro-benzyloxycarbonyloxy)-4-{2-[2-(3-chloro-phenyl)-2-hydroxy-ethylamino]-propyl}-phenyl ester [Example 15]
β2: % of isoproterenol activity (increase in cAMP) [1, 6]: 18% | Rat Free Fatty Acid: elevation of plasma free fatty acids, % of diisopropyl ester (Standard 2) response (plasma free fatty acids; 0.1 mg/kg, gavage, blood collected 50 min later): 46%

CC(Cc1ccc2c(c1)OC(C(=O)OCC1CC1)(C(=O)OCC1CC1)O2)NCC(O)c1cccc(Cl)c1 (stereo not drawn) [Example 38, 5-{2-[2-(3-Chloro-phenyl)-2-hydroxy-ethylamino]-propyl}-benzo[1,3]dioxole-2,2-dicarboxylic acid bis-cyclopropylmethyl ester]
EC50 [1, 3]: 274 nM | ED50 (plasma free fatty acids; [5]): 0.086 mg/kg

CC(Cc1ccc2c(c1)OC(C(=O)OC(C)C)(C(=O)OC(C)C)O2)NCC(O)c1cccc(Cl)c1 (stereo not drawn) [5-{2-[2-(3-Chloro-phenyl)-2-hydroxy-ethylamino]-propyl}-benzo[1,3]dioxole-2,2-dicarboxylic acid diisopropyl ester, reference compound]
increase of plasma free fatty acids (plasma free fatty acids; 0.1 mg/kg, rats): 78%

CC(Cc1ccc2c(c1)OC(C(=O)O)(C(=O)OCC1CCC1)O2)NCC(O)c1cccc(Cl)c1 (stereo not drawn) [Example 70, 5-{2-[2-(3-Chloro-phenyl)-2-hydroxy-ethylamino]-propyl}-benzo[1,3]dioxole-2,2-dicarboxylic acid cyclobutylmethyl ester]
EC50 [1]: 48 nM | EC50 [2]: 3000 nM

CC(C)CCOC(=O)C1(C(=O)O)Oc2ccc(C[C@@H](C)NC[C@H](O)c3cccc(Cl)c3)cc2O1 (stereo partly drawn) [Example 76, 5-{(2R)-2-[(2R)-2-(3-Chloro-phenyl)-2-hydroxy-ethylamino]-propyl}-benzo[1,3]dioxole-2,2-dicarboxylic acid (3-methylbutyl)ester]
EC50 [1]: 74 nM | EC50 [2]: 980 nM

CC(Cc1ccc2c(c1)OC(C(=O)OCCc1ccsc1)(C(=O)OCCc1ccsc1)O2)NCC(O)c1cccc(Cl)c1 (stereo not drawn) [Example 71, 5-{2-[2-(3-Chloro-phenyl)-2-hydroxy-ethylamino]-propyl}-benzo[1,3]dioxole-2,2-dicarboxylic acid bis 2-(3-Thienyl)ethyl-ester]
activation at 0.01 µM [1, 6]: 14% | ED50 (plasma free fatty acids; [5]): 0.076 mg/kg

C[C@H](Cc1ccc2c(c1)OC(C(=O)O)(C(=O)OCC(C)(C)C)O2)NC[C@H](O)c1cccc(Cl)c1 (stereo partly drawn) [Example 80, 5-{(2R)-2-[(2R)-2-(3-Chloro-phenyl)-2-hydroxy-ethylamino]-propyl}-benzo[1,3]dioxole-2,2-dicarboxylic acid (2,2-dimethyl-propyl)ester]
EC50 [1]: 55 nM | EC50 [2]: 2400 nM

C[C@H](Cc1ccc2c(c1)OC(C(=O)OCC=Cc1ccccc1)(C(=O)OCC=Cc1ccccc1)O2)NC[C@H](O)c1cccc(Cl)c1 (stereo partly drawn) [Example 99, 5-{(2R)-2-[(2R)-2-(3-Chloro-phenyl)-2-hydroxy-ethylamino]-propyl}-benzo[1,3]dioxole-2,2-dicarboxylic acid bis-(3-phenyl-allyl)ester]
activation at 0.01 µM [1, 6]: 16%

CC(Cc1ccc2c(c1)OC(C(=O)OCOC(=O)C1CCCCC1)(C(=O)OCOC(=O)C1CCCCC1)O2)NCC(O)c1cccc(Cl)c1 (stereo not drawn) [Example 50, 5-{2-[2-(3-Chloro-phenyl)-2-hydroxyethylamino]propyl}benzo[1,3] dioxole-2,2-dicarboxylic acid bis-cyclohexanecarbonyloxymethyl ester]
activation at 0.01 µM [1, 6]: 0%

CCCCCC(=O)OCOC(=O)C1(C(=O)OCOC(=O)CCCCC)Oc2ccc(CC(C)NCC(O)c3cccc(Cl)c3)cc2O1 (stereo not drawn) [Example 48, 5-{2-[2-(3-Chloro-phenyl)-2-hydroxyethylamino]propyl}benzo[1,3] dioxole-2,2-dicarboxylic acid bis-hexanoyloxymethyl ester]
activation at 0.01 µM [1, 6]: 4%

CC(Cc1ccc2c(c1)OC(C(=O)OCOC(=O)CCC1CCCC1)(C(=O)OCOC(=O)CCC1CCCC1)O2)NCC(O)c1cccc(Cl)c1 (stereo not drawn) [Example 55, 5-{2-[2-(3-Chloro-phenyl)-2-hydroxy-ethylamino]propyl}benzo[1,3]dioxole-2,2-dicarboxylic acid bis-(3-cyclopentyl-propionyloxymethyl) ester]
activation at 0.01 µM [1, 6]: 0%

CCOC(=O)COC(=O)C1(C(=O)OCC(=O)OCC)Oc2ccc(CC(C)NCC(O)c3cccc(Cl)c3)cc2O1 (stereo not drawn) [Example 28, 5-{2-[2-(3-Chloro-phenyl)-2-hydroxy-ethylamino]-propyl}-benzo[1,3]dioxole-2,2-dicarboxylic acid bis-ethoxycarbonylmethyl ester]
activation at 0.01 µM [1, 6]: 2%

CC(Cc1ccc2c(c1)OC(C(=O)OCCC[Si](C)(C)C)(C(=O)OCCC[Si](C)(C)C)O2)NCC(O)c1cccc(Cl)c1 (stereo not drawn) [Example 32, 5-{2-[2-(3-Chloro-phenyl)-2-hydroxy-ethylamino]-propyl}-benzo[1,3]dioxole-2,2-dicarboxylic acid bis-(3-trimethylsilanyl-propyl) ester]
activation at 0.01 µM ([1]; CHO): 2%

CC(Cc1ccc2c(c1)OC(C(N)=O)(C(N)=O)O2)NCC(O)c1cccc(Cl)c1 (stereo not drawn) [Example 60, 5-{2-[2-(3-Chloro-phenyl)-2-hydroxy-ethylamino]-propyl}benzo[1,3]dioxole-2,2-dicarboxylic acid bis-amide]
activation at 0.01 µM ([1]; CHO): 3%
